Measured values as given in patent US6464988B1, “Glipizide-cyclodextrin inclusion complexes and their pharmaceutical composition” (USV Limited, priority 2001, dated 2002).

Test: In-vitro dissolution studies (% release of glipizide)
Assay type: physicochemical
Settings: containing 10 mg of Glipizide

% release of glipizide (0.1N Hydrochloric acid, 200 ml, 5 mins): 14-18%
% release of glipizide (0.1N Hydrochloric acid, 200 ml, 15 mins): 23-24%
% release of glipizide (0.1N Hydrochloric acid, 200 ml, 30 mins): 23-26%
% release of glipizide (0.1N Hydrochloric acid, 400 ml, 5 mins): 16-20%
% release of glipizide (0.1N Hydrochloric acid, 400 ml, 15 mins): 26-27%
% release of glipizide (0.1N Hydrochloric acid, 400 ml, 30 mins): 26-30%
% release of glipizide (0.1N Hydrochloric acid, 900 ml, 5 mins): 16-18%
% release of glipizide (0.1N Hydrochloric acid, 900 ml, 15 mins): 22-26%
% release of glipizide (0.1N Hydrochloric acid, 900 ml, 30 mins): 24-27%
% release of glipizide (Phosphate Buffer pH 6.8 USP, 200 ml, 5 mins): 23-27%
% release of glipizide (Phosphate Buffer pH 6.8 USP, 200 ml, 15 mins): 65-67%
% release of glipizide (Phosphate Buffer pH 6.8 USP, 200 ml, 30 mins): 64-67%
% release of glipizide (Phosphate Buffer pH 6.8 USP, 400 ml, 5 mins): 24-29%
% release of glipizide (Phosphate Buffer pH 6.8 USP, 400 ml, 15 mins): 64-69%
% release of glipizide (Phosphate Buffer pH 6.8 USP, 400 ml, 30 mins): 65-67%
% release of glipizide (Phosphate Buffer pH 6.8 USP, 900 ml, 5 mins): 25-28%
% release of glipizide (Phosphate Buffer pH 6.8 USP, 900 ml, 15 mins): 55-62%
% release of glipizide (Phosphate Buffer pH 6.8 USP, 900 ml, 30 mins): 65-68%
% release of glipizide (Purified water pH 7.0, 200 ml, 5 mins): 30-32%
% release of glipizide (Purified water pH 7.0, 200 ml, 15 mins): 38-40%
% release of glipizide (Purified water pH 7.0, 200 ml, 30 mins): 39-41%
% release of glipizide (Purified water pH 7.0, 400 ml, 5 mins): 32-34%
% release of glipizide (Purified water pH 7.0, 400 ml, 15 mins): 40-42%
% release of glipizide (Purified water pH 7.0, 400 ml, 30 mins): 40-44%
% release of glipizide (Purified water pH 7.0, 900 ml, 5 mins): 20-25%
% release of glipizide (Purified water pH 7.0, 900 ml, 15 mins): 30-33%
% release of glipizide (Purified water pH 7.0, 900 ml, 30 mins): 38-41%
Substance: 1-cyclohexyl -3-[[p-[2-(methylpyrazinecarboxamido)ethyl]phenyl]sulfonyl]urea [Glipizide]
